Data published in patent publication US7686975B2, “Use of acylcyclohexanedione derivatives for improving the tolerance of plants to cold and/or frost” (BASF Aktiengesellschaft, priority 2003, dated 2010).

Experiments:
Format in all cases: in vivo
[1] = test system: apple flowers; experiment: Frost damage on apple flowers, simulated frost event
Text: To study the effect of compounds I used in accordance with the invention, flower buds or flowers of various apple varieties were sprayed to run-off point at different stages and different points in time with prohexadione-calcium in the form of the commercial preparation Regalis® from BASF AG in the form of 10% strength granules with 250 ppm of active substance or with a mixture of vitamin E and glycerol (see treatments a) to d)) and subjected to a naturally occurring or simulated frost event during mid-bloom. The treated flowering branches and untreated flowering branches which had been subjected to the same frost event and which acted as control, were subsequently transferred for 2 to 4 days into a greenhouse with temperatures ranging from 15 to 25° C., and the floral injury was assessed. Apple branches with flower buds or flowers (R. Cox) were treated as specified under a.1), b.1), c.1) or d.1) and subsequently subjected to a simulated frost event. Nine days (a.1)) or one day (b.1)-d.1)) after the treatment, the treated flowering branches and untreated control branches were cut off and subjected to a simulated frost event. The temperature program of the simulated frost event was as follows: • chilling from 12° C. to 4° C. within 30 minutes • one hour at 4° C. • chilling from 4° C. to 2° C. within 15 minutes • 75 minutes at 2° C. • chilling from 2° C. to −3° C. within 30 minutes • 150 minutes at −3° C. Two days after the frost event, the floral damage was assessed by examining the individual flowers. At the time of evaluation, the flowers were in the floral stage BBCH 54-56 (BBCH=Biologische Bundesanstalt für Land- und Forstwirtschaft, Bundessortenamt und Chemische Industrie [Federal Biological Institute for Agriculture and Forestry, Federal Office for Crop Plant Varieties, Chemical Industry]). Those flowers whose ovary is brownish in color are considered as damaged (destroyed). The data which represent the percentage of damaged flowers correspond to the mean±standard deviation. A statistically significant difference (critical difference: 5%) between the means of the various measurement series is identified by different letters. Apple branches with flower buds or flowers (R. Cox) were treated analogously to Example 1.1.1, but remained for 210 minutes in the frost chamber at −3° C. Apple branches with flower buds or flowers (Jonagold) were treated analogously to Example 1.1.1. They remained for 150 minutes in the frost chamber at −3° C. At the time of evaluation, the flowers were in floral stage BBCH 56-57. Apple branches with flower buds or flowers (Jonagold) were treated analogously to Example 1.1.3, but remained for 210 minutes in the frost chamber at −3° C. Apple branches with flower buds or flowers (Gala) were treated as described under a.2), b.2), c.2) or d.2) and subsequently subjected to a simulated frost event. 11 days (a.2)) or two days (b.2)-d.2)) after the treatment, the treated flowering branches and untreated control branches were cut off and subjected to a simulated frost event. The temperature program of the simulated frost event corresponded to the one in Example 1.1.1. Four days after the frost event, the floral damage was assessed by examining the individual flowers. At the time of evaluation, the flowers were in floral stage BBCH 57-59. Apple branches with flower buds or flowers (Boskoop) were treated analogously to Example 1.1.5. At the time of evaluation, the flowers were in floral stage BBCH 59-61. They remained at −3° C. for 150 minutes.

[2] = test system: apple flowers; experiment: Frost damage on apple flowers, naturally occurring frost event
Text: To study the effect of compounds I used in accordance with the invention, flower buds or flowers of various apple varieties were sprayed to run-off point at different stages and different points in time with prohexadione-calcium in the form of the commercial preparation Regalis® from BASF AG in the form of 10% strength granules with 250 ppm of active substance or with a mixture of vitamin E and glycerol (see treatments a) to d)) and subjected to a naturally occurring or simulated frost event during mid-bloom. The treated flowering branches and untreated flowering branches which had been subjected to the same frost event and which acted as control, were subsequently transferred for 2 to 4 days into a greenhouse with temperatures ranging from 15 to 25° C., and the floral injury was assessed. Apple branches with flower buds or flowers (R. Cox) were treated as described under a.3), b.3), c.3) or d.3) and subsequently subjected to a naturally occurring frost event. The frost period lasted 5 days. The lowest temperature was reached on day two of the frost event and was −4° C. One day after the frost event, the treated flowering branches and untreated control branches were cut off. One day after the branches had been cut off, the floral damage was assessed by examining the individual flowers. At the time of evaluation, the flowers were in floral stage BBCH 56-57. Apple branches with flower buds or flowers (Jonagold) were treated analogously to Example 1.2.1 and exposed to the same frost event. At the time of evaluation, the flowers were in floral stage BBCH 57-59. Apple branches with flower buds or flowers (Boskoop) were treated as described under a.4), b.4), c.4) or d.4) and subsequently subjected to a naturally occurring frost event. The frost period lasted for one day. The lowest temperature was −1.2° C. Two days after the frost event, the treated flowering branches and untreated control branches were cut off, and one day after the branches had been cut off, the floral damage was assessed by examining the individual flowers. At the time of evaluation, the flowers were in floral stage BBCH 57-61.

[3] = test system: apple seedlings; experiment: Photochemical efficacy of electron transport (Fv/Fm, PAM fluorometer) in apple seedlings after simulated frost event; details: Golden Delicious seedlings
Procedure: Intact photosynthesis in leaves and other green plant tissues is of utmost importance for frost resistance and the intensity of the subsequent regeneration processes. To study the effect of compounds I which were used in accordance with the invention, the photosynthesis rate of treated (a.5) to (e.5)) and untreated apple seedlings which had been subjected to a simulated frost event was determined.
The material used for the experiments was apple seedlings which had been grown from seeds of Golden Delicious apples following cold stratification under controlled-environment cabinet conditions (temperature approx. 20° C.; relative atmospheric humidity approx. […]; day:night=10.5:13.5 hours; light intensity approx. 200 μmol m^−2 s^−1) and which had three to four fully formed leaves at the point in time of treatment. Batches of 10 plants per combination were treated as follows:
To simulate the frost event, the plants were subjected to the following chill program: • removal from the controlled-environment cabinet (20° C.) • transfer into the chill cell to randomized positions at a height of approximately 40 cm for approx. 6 hours at 12° C. • 2 hours at 4° C. • 1.5 hours at 2° C. • 1 hour at 0° C. • 3.5 hours at −3° C. • controlled-environment cabinet (20° C.)
The photosynthesis rate of the stressed apple seedlings was subsequently determined with the aid of a pulse amplitude modulation fluorometer (PAM 2000, Heinz Walz GmbH, Effeltrich). The quotient Fv/Fm, which is determined, describes the amount of light energy captured by the photosynthesis apparatus of the plants which can be exploited for the production of assimilates. Fv represents the variable fluorescence, which corresponds to the difference between F0 (basal fluorescence, which is measured when a dark-adapted leaf is irradiated with fluorescence-exciting light) and Fm (maximum fluorescence of a dark-adapted leaf) (Fv/Fm=(Fm−F0)/Fm).

## CCC(=O)C1=C([O-])CC(C(=O)[O-])CC1=O.[Ca+2] (centres unmarked) [prohexadione-calcium]
[1]; Boskoop, buds sprayed eleven days prior to simulated frost, prohexadione-calcium 250 ppm, 150 minutes at −3° C., mean±SD
  Percentage of damage to flowers: significantly fewer
[1]; Boskoop; buds sprayed eleven days prior to simulated frost; prohexadione-calcium 250 ppm; 150 minutes at −3° C.; mean±SD; listed as a.2)
  Percentage of damage to flowers: 33.6 ± 4.1%
[1]; Boskoop, flowers (mid-bloom) sprayed two days prior to simulated frost, prohexadione-calcium 250 ppm, 150 minutes at −3° C., mean±SD
  Percentage of damage to flowers: significantly fewer
[1]; Boskoop, flowers (mid-bloom) sprayed two days prior to simulated frost; prohexadione-calcium 250 ppm; 150 minutes at −3° C.; mean±SD; listed as b.2)
  Percentage of damage to flowers: 36.8 ± 4.2%
[1]; Gala, buds sprayed eleven days prior to simulated frost, prohexadione-calcium 250 ppm, 150 minutes at −3° C., assessed four days after frost, mean±SD
  Percentage of damage to flowers: tends to reduce the damage
[1]; Gala; buds sprayed eleven days prior to simulated frost; prohexadione-calcium 250 ppm; 150 minutes at −3° C.; assessed four days after frost; mean±SD; listed as a.2)
  Percentage of damage to flowers: 5.2 ± 1.8%
[1]; Gala, flowers (mid-bloom) sprayed two days prior to simulated frost, prohexadione-calcium 250 ppm, 150 minutes at −3° C., assessed four days after frost, mean±SD
  Percentage of damage to flowers: 8.8 ± 2.5%
[1]; Jonagold, buds sprayed nine days prior to simulated frost, prohexadione-calcium 250 ppm, 150 minutes at −3° C., mean±SD
  Percentage of damage to flowers: significantly fewer
[1]; Jonagold; buds sprayed nine days prior to simulated frost; prohexadione-calcium 250 ppm; 150 minutes at −3° C.; mean±SD; listed as a.1)
  Percentage of damage to flowers: 54.4 ± 3.2%
[1]; Jonagold, buds sprayed nine days prior to simulated frost, prohexadione-calcium 250 ppm, 210 minutes at −3° C., mean±SD
  Percentage of damage to flowers: significantly less damage
[1]; Jonagold; buds sprayed nine days prior to simulated frost; prohexadione-calcium 250 ppm; 210 minutes at −3° C.; mean±SD; listed as a.1)
  Percentage of damage to flowers: 43.8 ± 4.2%
[1]; Jonagold, flowers (mid-bloom) sprayed one day prior to simulated frost, prohexadione-calcium 250 ppm, 150 minutes at −3° C., mean±SD
  Percentage of damage to flowers: 69.0 ± 2.9%
[1]; Jonagold, flowers (mid-bloom) sprayed one day prior to simulated frost, prohexadione-calcium 250 ppm, 210 minutes at −3° C., mean±SD
  Percentage of damage to flowers: significantly less damage
[1]; Jonagold, flowers (mid-bloom) sprayed one day prior to simulated frost; prohexadione-calcium 250 ppm; 210 minutes at −3° C.; mean±SD; listed as b.1)
  Percentage of damage to flowers: 66.0 ± 2.7%
[1]; R. Cox, buds sprayed nine days prior to simulated frost, prohexadione-calcium 250 ppm, 210 minutes at −3° C., mean±SD
  Percentage of damage to flowers: significantly fewer
[1]; R. Cox; buds sprayed nine days prior to simulated frost; prohexadione-calcium 250 ppm; 210 minutes at −3° C.; mean±SD; listed as a.1)
  Percentage of damage to flowers: 6.0 ± 1.2%
[1]; R. Cox, buds sprayed to run-off nine days prior to simulated frost, prohexadione-calcium 250 ppm, 150 minutes at −3° C., assessed two days after frost, mean±SD
  Percentage of damage to flowers: significantly fewer
[1]; R. Cox; buds sprayed to run-off nine days prior to simulated frost; prohexadione-calcium 250 ppm; 150 minutes at −3° C.; assessed two days after frost; mean±SD; listed as a.1)
  Percentage of damage to flowers: 15.6 ± 2.5%
[1]; R. Cox, flowers (mid-bloom) sprayed one day prior to simulated frost, prohexadione-calcium 250 ppm, 210 minutes at −3° C., mean±SD
  Percentage of damage to flowers: 33.3 ± 2.6%
[1]; R. Cox, flowers (mid-bloom) sprayed to run-off one day prior to simulated frost, prohexadione-calcium 250 ppm, 150 minutes at −3° C., assessed two days after frost, mean±SD
  Percentage of damage to flowers: 23.1 ± 2.4%
[2]; Boskoop, buds sprayed thirteen days prior to natural frost, prohexadione-calcium 250 ppm, frost one day, lowest −1.2° C., mean±SD
  Percentage of damage to flowers: 84.3 ± 3.3%
[2]; Boskoop, flowers (mid-bloom) sprayed five days prior to natural frost, prohexadione-calcium 250 ppm, frost one day, lowest −1.2° C., mean±SD
  Percentage of damage to flowers: significantly fewer
[2]; Boskoop, flowers (mid-bloom) sprayed five days prior to natural frost; prohexadione-calcium 250 ppm; frost one day, lowest −1.2° C.; mean±SD; listed as b.4)
  Percentage of damage to flowers: 74.7 ± 3.0%
[2]; Jonagold, buds sprayed ten days prior to natural frost, prohexadione-calcium 250 ppm, frost period 5 days, lowest −4° C., mean±SD
  Percentage of damage to flowers: 67.5 ± 2.3%
[2]; Jonagold, flowers (mid-bloom) sprayed two days prior to natural frost, prohexadione-calcium 250 ppm, frost period 5 days, lowest −4° C., mean±SD
  Percentage of damage to flowers: 67.7 ± 2.6%
[2]; R. Cox, buds sprayed ten days prior to natural frost, prohexadione-calcium 250 ppm, frost period 5 days, lowest −4° C., mean±SD
  Percentage of damage to flowers: reduced floral damage
[2]; R. Cox; buds sprayed ten days prior to natural frost; prohexadione-calcium 250 ppm; frost period 5 days, lowest −4° C.; mean±SD; listed as a.3)
  Percentage of damage to flowers: 88.3 ± 1.3%
[2]; R. Cox, flowers (mid-bloom) sprayed two days prior to natural frost, prohexadione-calcium 250 ppm, frost period 5 days, lowest −4° C., mean±SD
  Percentage of damage to flowers: reduced floral damage
[2]; R. Cox, flowers (mid-bloom) sprayed two days prior to natural frost; prohexadione-calcium 250 ppm; frost period 5 days, lowest −4° C.; mean±SD; listed as b.3)
  Percentage of damage to flowers: 76.6 ± 1.7%
[3]; sprayed 2 days prior to simulated frost (3.5 hours at −3° C.), prohexadione-calcium 50 ppm, 24 hours after frost
  Fv/Fm: survived the frost event virtually undamaged
[3]; sprayed 2 days prior to simulated frost (3.5 hours at −3° C.); prohexadione-calcium 50 ppm; 24 hours after frost; listed as c.5)
  Fv/Fm: 0.804
[3]; sprayed 8 days prior to simulated frost (3.5 hours at −3° C.), 50 ppm prohexadione-calcium, 24 hours after frost
  Fv/Fm: survived the frost event virtually undamaged
[3]; sprayed 8 days prior to simulated frost (3.5 hours at −3° C.); 50 ppm prohexadione-calcium; 24 hours after frost; listed as b.5)
  Fv/Fm: 0.809
[3]; sprayed 21 days prior to simulated frost (3.5 hours at −3° C.), 50 ppm prohexadione-calcium, 24 hours after frost
  Fv/Fm: survived the frost event virtually undamaged
[3]; sprayed 21 days prior to simulated frost (3.5 hours at −3° C.); 50 ppm prohexadione-calcium; 24 hours after frost; listed as a.5)
  Fv/Fm: 0.812
